In BindingDB's records for patent US20250388593 (Mitsubishi Tanabe Pharma, 2025) one finds Kd data, which are given here for 21 molecules.

pKd: −log10 of the molar value. A value given as a limit tells only on which side of the number the result lay.

The target of this experiment is T1, Protein cereblon [318-426] (UniProt Q96SW2).
T1 construct: 318-426
T1 sequence (Q96SW2 318-426): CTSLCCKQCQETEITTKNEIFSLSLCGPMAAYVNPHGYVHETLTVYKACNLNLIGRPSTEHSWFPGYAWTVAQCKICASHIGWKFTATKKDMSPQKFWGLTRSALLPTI
Description: Measurement of Molecular Interactions Using Surface Plasmon Resonance (SPR). On the procedure:
The instrument used was the Biacore T200 (manufactured by Cytiva). […] The sensor chip used was Sensor Chip SA (manufactured by Cytiva). The CRBN truncate was immobilized using the affinity between SA (streptavidin) on the sensor chip and the Avi-tag. The running buffer was a mixture of 10 mM HEPES pH 7.5, 150 mM NaCl, 1 mM TCEP, 0.005% Tween 20, and 2% DMSO. […] Contact time and dissociation time were set at 60 seconds and 120 seconds, respectively.
Regarding `CC(C)(C)OC(=O)C1=CC(C2CCCC(=O)NC2=O)CC=C1` (stereo unspecified) [US20250388593, Example 60], the Kd entry was “in the range around 75 µM”.
The molecule `O=C1CCCC(C2=CC([N+](=O)[O-])CC=C2)C(=O)N1` (stereo unspecified) [US20250388593, Example 62] gave a pKd of less than 4.00.
The molecule `O=C1CCCC(c2cc([N+](=O)[O-])ccc2Cl)C(=O)N1` (stereo unspecified) [US20250388593, Example 63] had a pKd of less than 4.00.
Same read-out and setting: in the case of `COC(=O)C(CCCCNC(=O)OCc1ccccc1)Oc1ccccc1[N+](=O)[O-]` (stereo unspecified) [US20250388593, Example 66-1] it was less than 4.00.
Same read-out and setting: under `CC(C)(C)OC(=O)N1CCN(C(=O)CN2CCC3(CCCC(=O)NC3=O)CC2=O)CC1` (stereo unspecified) [US20250388593, Example 98] stands less than 4.00; under `CC(C)(C)OC(=O)CN1CCC2(CCCC(=O)NC2=O)CC1=O` (stereo unspecified) [US20250388593, Example 107], less than 4.00; under `CC(=O)Nc1ccc2nc(N3CCCC(=O)NC3=O)sc2c1` [US20250388593, Example 119], greater than 4.30.
On the same count and under the same terms, in the case of `CC(C)(C)OC(=O)CCc1nn(C2CCCC(=O)NC2=O)c2ccccc12` (stereo unspecified) [US20250388593, Example 137] it was greater than 4.30; in that of `Cn1c(=O)n(C2CCCC(=O)NC2=O)c2cccc(CCCCCCCC(=O)OC(C)(C)C)c21` (stereo unspecified) [US20250388593, Example 207], less than 4.00.
Take `Cn1c(=O)n(C2CCCC(=O)NC2=O)c2cccc(CCC(=O)OC(C)(C)C)c21` (stereo unspecified) [US20250388593, Example 213]: the pKd is greater than 4.30.
On the same count and under the same terms, in the case of `Cn1c(=O)n(C2CCCC(=O)NC2=O)c2ccc(C#CCCCCCC(=O)OC(C)(C)C)cc21` (stereo unspecified) [US20250388593, Example 215] it was less than 4.00; in that of `Cn1c(=O)n(C2CCCC(=O)NC2=O)c2ccc(CCCCCCCC(=O)OC(C)(C)C)cc21` (stereo unspecified) [US20250388593, Example 216], less than 4.00; in that of `Cn1c(=O)n(C2CCCC(=O)NC2=O)c2ccc(CCCCC(=O)OC(C)(C)C)cc21` (stereo unspecified) [US20250388593, Example 217], greater than 4.30.
The molecule `O=C1CCCC(N2C(=O)OCC3=C2C=CC([N+](=O)[O-])C3)C(=O)N1` (stereo unspecified) [US20250388593, Example 274] showed a pKd of less than 4.00.
Same read-out and setting: under `CC(C)(C)OC(=O)N1CCC(c2ccc(OC3CCCCNC3=O)cc2)CC1` (stereo unspecified) [US20250388593, Example 276] stands less than 4.00.
Take `CN(C1CCCC(=O)NC1=O)S(=O)(=O)c1ccc(CCCCC(=O)OC(C)(C)C)cc1` (stereo unspecified) [US20250388593, Example 279]: the pKd is less than 4.00.
`Cn1nc(N2CC=CC(=O)NC2=O)c2ccc(C3CCN(C(=O)OC(C)(C)C)CC3)cc21` [US20250388593, Example 282] showed a pKd of less than 4.00.
Same read-out and setting: in the case of `CC(C)(C)OC(=O)CCCCCNc1cccc(C2CCCC(=O)NC2=O)c1` (stereo unspecified) [US20250388593, Example 298] it was less than 4.00; in that of `CC(C)(C)OC(=O)CCCCCNc1ccc(N2CCC3(CCCC(=O)NC3=O)CC2=O)cc1` (stereo unspecified) [US20250388593, Example 301], less than 4.00; in that of `CC(C)(C)OC(=O)CCCCCNc1ccc(N2CCC(N3CCCC(=O)NC3=O)C2=O)cc1` (stereo unspecified) [US20250388593, Example 302], less than 4.00.
On the same count and under the same terms, in the case of `CC(C)(C)OC(=O)NCCCCCCCNc1ccc(N2CCC3(CCCC(=O)NC3=O)CC2=O)cc1` (stereo unspecified) [US20250388593, Example 304] it was less than 4.00.
